Laboratory results reported in article PMC9851200, “Multiparameter phenotypic screening for endogenous TFEB and TFE3 translocation identifies novel chemical series modulating lysosome function” (Autophagy, 2022).
Like-named read-outs stand apart in the source and are kept apart here.

Assays:
[1] = tested on: SH-SY5Y cells; assay: AK (adenylate kinase) release ToxiLight cytotoxicity assay; conditions: PKIS2 primary screening; note: reference of the scale not given here
[2] = tested on: endogenous TFE3; assay: TFE3 nuclear translocation, immunocytochemistry high-content imaging; type: cell-based; note: test concentration or dose not given here
[3] = tested on: SH-SY5Y cells; assay: Nuclear count from microscopy images (cellular growth and toxicity); conditions: PKIS2 primary screening; note: reference of the scale not given here
[4] = tested on: SH-SY5Y cells; note: reference of the scale not given here
[5] = tested on: endogenous TFEB; assay: TFEB nuclear translocation, immunocytochemistry high-content imaging; type: cell-based; note: test concentration or dose not given here
[6] = PKIS2 primary screening, DQ Red BSA intensity
[7] = PKIS2 primary screening, DQ Red BSA spot count

Nc1ncnc2scc(-c3ccc(NC(=O)Cc4cc(F)ccc4F)cc3)c12.O=C(O)C(F)(F)F [UNC10225107A]
AK [1]: 124.57
TFE3 % ([2]; PKIS2 primary screening): 9.54%
Nuclear Count [3]: 68.49
DQ Intensity [4, 6]: 106.01
DQ Spot [4, 7]: 96.58
TFEB % ([5]; PKIS2 primary screening): 8.26%

CCn1c(-c2ccncc2)nc2cnccc21 [UNC10225204A]
AK [1]: 74.70
TFE3 % ([2]; PKIS2 primary screening): 12.32%
Nuclear Count [3]: 104.87
DQ Intensity ([4]; PKIS2 primary screening): 98.92
DQ Spot ([4]; PKIS2 primary screening): 103.23
TFEB % ([5]; PKIS2 primary screening): 11.18%

NS(=O)(=O)c1cccc(-c2ccc3ncc(N4CCOCC4)nc3c2)c1 [UNC10225400A]
AK [1]: 95.42
TFE3 % ([2]; PKIS2 primary screening): 6.51%
Nuclear Count [3]: 118.72
DQ Intensity [4, 6]: 83.02
DQ Spot [4, 7]: 88.90
TFEB % ([5]; PKIS2 primary screening): 4.14%

NC(=O)c1cccc(Nc2nccc(Nc3ccc(Oc4cccc(Cl)c4)c(Cl)c3)n2)c1 [GW659008]
AK [1]: 92.69
TFE3 % ([2]; PKIS2 primary screening): 11.36%
Nuclear Count [3]: 86.88
DQ Intensity [4, 6]: 100.37
DQ Spot [4, 7]: 103.30
TFEB % ([5]; PKIS2 primary screening): 11.92%

NS(=O)(=O)CCc1cccc(Nc2nccc(-c3c(-c4cccc(NC(=O)c5c(F)cccc5F)c4)nn4ccccc34)n2)c1 [UNC10224988A]
AK [1]: 106.43
TFE3 % ([2]; PKIS2 primary screening): 7.44%
Nuclear Count [3]: 124.64
DQ Intensity ([4]; PKIS2 primary screening): 109.41
DQ Spot ([4]; PKIS2 primary screening): 101.39
TFEB % ([5]; PKIS2 primary screening): 3.80%

CNc1ncnc2[nH]ncc12 [UNC10243862A]
AK [1]: 111.70
TFE3 % ([2]; PKIS2 primary screening): 11.00%
Nuclear Count [3]: 108.49
DQ Intensity ([4]; PKIS2 primary screening): 93.16
DQ Spot ([4]; PKIS2 primary screening): 103.80
TFEB % ([5]; PKIS2 primary screening): 5.21%

COc1cc2ncnc(Nc3ccc(OCc4ccccc4Br)c(Cl)c3)c2cc1OC.Cl [UNC10225261A]
AK [1]: 120.37
TFE3 % ([2]; PKIS2 primary screening): 8.49%
Nuclear Count [3]: 123.73
DQ Intensity [4, 6]: 96.30
DQ Spot [4, 7]: 117.72
TFEB % ([5]; PKIS2 primary screening): 4.00%

CC(C)c1cc(-c2ccc3c(N)n[nH]c3c2)nc(N)n1 [GSK2250882]
AK [1]: 82.41
TFE3 % ([2]; PKIS2 primary screening): 20.48%
Nuclear Count [3]: 92.23
DQ Intensity [4, 6]: 90.98
DQ Spot [4, 7]: 110.65
TFEB % ([5]; PKIS2 primary screening): 3.86%

O=C(Nc1ccc(Oc2ccc3nc(NC(=O)c4ccco4)[nH]c3c2)cc1)Nc1cc(C(F)(F)F)ccc1F [GW683134]
AK [1]: 83.90
TFE3 % ([2]; PKIS2 primary screening): 30.65%
Nuclear Count [3]: 71.64
DQ Intensity [4, 6]: 82.17
DQ Spot [4, 7]: 71.77
TFEB % ([5]; PKIS2 primary screening): 14.35%

N#Cc1cccc(C(=O)NC2CCN(c3ccnc(Nc4ccc(F)cc4)n3)C2)c1 (stereo not drawn) [GSK1379708]
AK [1]: 99.36
TFE3 % ([2]; PKIS2 primary screening): 11.35%
Nuclear Count [3]: 107.86
DQ Intensity [4, 6]: 97.27
DQ Spot [4, 7]: 112.33
TFEB % ([5]; PKIS2 primary screening): 6.02%

COc1cc(Nc2nccc(N3CCC(NC(=O)c4cccc(C#N)c4)C3)n2)cc(OC)c1OC (stereo not drawn) [GSK1379751]
AK [1]: 124.29
TFE3 % ([2]; PKIS2 primary screening): 13.31%
Nuclear Count [3]: 92.57
DQ Intensity [4, 6]: 80.41
DQ Spot [4, 7]: 103.20
TFEB % ([5]; PKIS2 primary screening): 5.62%

Cc1ccc(NC(=O)Nc2ccccc2)cc1-c1ccc(C(=O)Nc2ccncc2)cc1 [UNC10224992A]
AK [1]: 119.72
TFE3 % ([2]; PKIS2 primary screening): 19.70%
Nuclear Count [3]: 89.66
DQ Intensity ([4]; PKIS2 primary screening): 74.41
DQ Spot ([4]; PKIS2 primary screening): 94.75
TFEB % ([5]; PKIS2 primary screening): 8.91%

O=C(Nc1cccc(-c2nn3ccccc3c2-c2ccnc(Nc3cccc(C(F)(F)F)c3)n2)c1)c1c(F)cccc1F [UNC10225325A]
AK [1]: 71.36
TFE3 % ([2]; PKIS2 primary screening): 14.69%
Nuclear Count [3]: 61.45
DQ Intensity ([4]; PKIS2 primary screening): 102.24
DQ Spot ([4]; PKIS2 primary screening): 131.00
TFEB % ([5]; PKIS2 primary screening): 6.17%

CCn1c(-c2nonc2N)nc2c(C#CC(C)(C)O)ncc(OCCCCN)c21.O=C(O)C(F)(F)F.O=C(O)C(F)(F)F [UNC10225393A]
AK [1]: 69.12
TFE3 % ([2]; PKIS2 primary screening): 10.89%
Nuclear Count [3]: 121.84
DQ Intensity ([4]; PKIS2 primary screening): 115.98
DQ Spot ([4]; PKIS2 primary screening): 109.86
TFEB % ([5]; PKIS2 primary screening): 2.26%

NCCNS(=O)(=O)c1ccc(-c2ccnc3[nH]ccc23)cc1 [UNC10225023B]
AK [1]: 72.23
TFE3 % ([2]; PKIS2 primary screening): 14.03%
Nuclear Count [3]: 135.88
DQ Intensity [4, 6]: 110.40
DQ Spot [4, 7]: 102.49
TFEB % ([5]; PKIS2 primary screening): 3.92%

O=C(O)C(F)(F)F.O=c1[nH]ccc2nc(N[C@@H]3CCNC3)nc(Nc3ccc4c(c3)S(=O)(=O)CC4)c12 [UNC10225451A]
AK [1]: 185.61
TFE3 % ([2]; PKIS2 primary screening): 16.36%
Nuclear Count [3]: 98.38
DQ Intensity ([4]; PKIS2 primary screening): 83.68
DQ Spot ([4]; PKIS2 primary screening): 100.25
TFEB % ([5]; PKIS2 primary screening): 7.05%

Cc1nnc(-c2ccc(C)c(-c3ccc(C(=O)O)cc3)c2)o1 [UNC10225501A]
AK [1]: 95.30
TFE3 % ([2]; PKIS2 primary screening): 10.21%
Nuclear Count [3]: 117.94
DQ Intensity ([4]; PKIS2 primary screening): 75.58
DQ Spot ([4]; PKIS2 primary screening): 83.30
TFEB % ([5]; PKIS2 primary screening): 7.30%

Cc1ccc(NC(=O)c2ccnc(N3CCCCC3)c2)cc1-c1ccc(C(=O)NCC2CC2)cc1 [UNC10225036A]
AK [1]: 94.08
TFE3 % ([2]; PKIS2 primary screening): 6.82%
Nuclear Count [3]: 108.51
DQ Intensity ([4]; PKIS2 primary screening): 84.91
DQ Spot ([4]; PKIS2 primary screening): 99.52
TFEB % ([5]; PKIS2 primary screening): 5.85%

COc1cccc(CC(=O)N2CCc3cc(-c4cn(C)c5ncnc(N)c45)ccc32)c1 [UNC10224987A]
AK [1]: 97.56
TFE3 % ([2]; PKIS2 primary screening): 10.50%
Nuclear Count [3]: 115.64
DQ Intensity ([4]; PKIS2 primary screening): 104.40
DQ Spot ([4]; PKIS2 primary screening): 98.28
TFEB % ([5]; PKIS2 primary screening): 11.97%

c1ccc(-c2n[nH]cc2-c2ccnc3ccccc23)nc1 [UNC10225289A]
AK [1]: 102.26
TFE3 % [2]: 7.71%
Nuclear Count [3]: 134.93
DQ Intensity [4]: 80.70
DQ Spot [4]: 82.58
TFEB % [5]: 2.12%

COc1ccc(S(=O)(=O)NC2CCN(c3cc(C)nc(Nc4cccc(C#N)c4)n3)CC2)cc1 [GSK1653539]
AK [1]: 67.09
TFE3 % ([2]; PKIS2 primary screening): 12.26%
Nuclear Count [3]: 97.37
DQ Intensity [4, 6]: 59.46
DQ Spot [4, 7]: 82.66
TFEB % ([5]; PKIS2 primary screening): 5.30%

CNc1nc(-c2ccc3c(N)n[nH]c3c2)cc(N2C[C@@H](C(=O)Nc3ccccc3)CC[C@H]2C)n1 [GSK2298859]
AK [1]: 105.92
TFE3 % ([2]; PKIS2 primary screening): 12.86%
Nuclear Count [3]: 105.37
DQ Intensity [4, 6]: 117.75
DQ Spot [4, 7]: 109.70
TFEB % ([5]; PKIS2 primary screening): 6.90%

CSc1cccc2c(-c3ccncn3)c(-c3ccc(F)cc3)nn12 [UNC10225437A]
AK [1]: 100.64
TFE3 % ([2]; PKIS2 primary screening): 10.83%
Nuclear Count [3]: 89.95
DQ Intensity ([4]; PKIS2 primary screening): 120.45
DQ Spot ([4]; PKIS2 primary screening): 125.69
TFEB % ([5]; PKIS2 primary screening): 6.79%

CS(=O)(=O)CCNCc1nc(-c2ccc3ncnc(Nc4ccc(OCc5ccccc5)c(Cl)c4)c3c2)cs1.Cl [UNC10225279B]
AK [1]: 96.76
TFE3 % ([2]; PKIS2 primary screening): 17.30%
Nuclear Count [3]: 87.19
DQ Intensity [4, 6]: 82.64
DQ Spot [4, 7]: 92.63
TFEB % ([5]; PKIS2 primary screening): 5.66%

Cc1ccc(Nc2ccnc(Nc3ccc4c(c3)CS(=O)(=O)C4)n2)cc1O [GW579362]
AK [1]: 117.18
TFE3 % ([2]; PKIS2 primary screening): 18.94%
Nuclear Count [3]: 72.17
DQ Intensity [4, 6]: 160.36
DQ Spot [4, 7]: 117.73
TFEB % ([5]; PKIS2 primary screening): 7.59%

CCn1c(-c2c(N)noc2C)nc2cnccc21 [UNC10225095A]
AK [1]: 112.40
TFE3 % ([2]; PKIS2 primary screening): 10.37%
Nuclear Count [3]: 110.85
DQ Intensity ([4]; PKIS2 primary screening): 103.20
DQ Spot ([4]; PKIS2 primary screening): 105.92
TFEB % ([5]; PKIS2 primary screening): 3.05%

COCCNC(=O)c1ccc(-c2cc(C(=O)NC3CC3)cc(F)c2C)cc1 [UNC10225229A]
AK [1]: 73.51
TFE3 % ([2]; PKIS2 primary screening): 7.62%
Nuclear Count [3]: 111.58
DQ Intensity ([4]; PKIS2 primary screening): 100.76
DQ Spot ([4]; PKIS2 primary screening): 101.89
TFEB % ([5]; PKIS2 primary screening): 15.26%
